Data on 1 compound can be found in patent US9797016B2, “Methods and biomarkers for detection of bladder cancer” (OSLO UNIVERSITETSSYKEHUS HF, priority 2010, dated 2017).

Each structure is given as a SMILES string.

For the assay, the system named is bladder cancer cell lines (5637, J82, SCaBER, TCCSUP). In words: Quantitative gene expression analyses (real-time PCR) after epigenetic drug treatment. The format is cell-based, human. As to conditions: hypermethylated bladder cancer cell lines; 1 μM or 5 μM 5-aza-dC alone, 72 hours. As to the method: Cell lines representative of bladder (5637, J82, SCaBER, and TCCSUP), renal cell (786-0, ACHN, Caki-1, Caki-2) and prostate (22Rv1, DU 145, LNCaP, PC-3) cancer were obtained from the American Type Culture Collection (Manassas, Va.). All cell lines were cultured according to the manufacturer's specifications, with 10% fetal bovine serum (Gibco, Invitrogen, Carlsbad, Calif.) and antibiotics (100 units/mL penicillin G, and 100 μg/mL streptomycin, Gibco), in a humidified atmosphere of 5% CO2 at 37° C. […] RNA from four bladder cancer cell lines untreated, treated either with 1 μM or 5 μM of 5-aza-2′-deoxycytidine for 72 hours, and treated with the combination of 1 μM of 5-aza-dC (72 h) and 0.5 μM of trichostatin (added the last 12 h) was analyzed. […] GDF15 (Hs00171132_m1), HSPA2 (Hs00356607_g1), TMEFF2 (Hs01086901_m1), VIM (Hs00185584_m1), and endogenous controls assays GUSB (Hs99999908_m1) and HPRTJ (Hs99999909_m1), were amplified separately in 96-well plates following the recommended protocol (Applied Biosystems), and the real time quantitative gene expression was measured by the 7500 Real-Time PCR System (Applied Biosystems). All samples were analyzed in triplicate, and the mean value was used for data analysis. […]

With `Nc1ncn([C@H]2C[C@H](O)[C@@H](CO)O2)c(=O)n1` [5-aza-dC, 5-aza-2′-deoxycytidine], the “transcript expression of GDF15, HSPA2, TMEFF2 and VIM after promoter demethylation” value is given as “restored or increased”.
